Measured values from patent US20050148553A1, “Use of tigecycline, alone, or in combination with rifampin to treat osteomyelitis and/or septic arthritis” (priority 2003, published 2005).
Values after ≈ are worked out from the molar mass of the structure shown.

Legend:
Acinetobacter baumannii = test: Compassionate use study, osteomyelitis patient; assay type: in vivo, human; conditions: 50 mg every 12 or 24 hours for two months; within one month
Procedure: The patient was treated with meropenem and tobramycin. […] The patient was then treated with tigecycline for two months with either 50 mg every 12 hours or 50 mg every 24 hours.

[1] = Pharmacokinetics and tolerability of intravenous tigecycline in humans; assay type: in vivo, human
[2] = Antibiotic levels in rabbit serum and bone by diffusion bioassay; assay type: in vivo, New Zealand white rabbits
Procedure: Normal NZW rabbit serum (Fisher Scientific) and normal, uninfected rabbit tibia bone were used to generate standard curves for tigecycline (Wyeth-Ayerst Research, Pearl River, N.Y.), vancomycin (Abbott Laboratories, Chicago, Ill.), and rifampin (Merrell Pharmaceuticals Inc. Kansas, Mo.). Bioassays were performed with each drug to generate the standard curves for antibiotic concentration in serum and/or tibial bone.
The organism used for the bioassay was Bacillus cereus ATCC11778. Serum standards were prepared using two-fold serial dilutions with either antibiotic to yield concentrations of 25 μg/ml to 0.20 μg/ml drug in Normal NZW rabbit serum. Bone eluate standards were prepared for tigecycline by thoroughly cleaning noninfected rabbit tibias with 70% ethanol in a sterilized fume hood. Each tibia was broken into small chips of approximately 0.5 cm^2 using a grinder. The chips were placed into a sterile, 50 ml conical centrifuge tube and weighed. One milliliter of sterile, 0.9% normal saline was added for each gram of bone chips. The solution was thoroughly vortexed for two minutes. The resulting bone eluate was allowed to shake at 180 rpm in a cold room at 4° C., for 12 hours. The samples were centrifuged at 4000 rpm for 3 minutes prior to assay, to pellet the chips.
The diameter of the zone of growth inhibition around each well was measured, in millimeters. A standard curve was generated for tigecycline concentration in both serum and bone eluate and for vancomycin in serum by plotting the known antibiotic concentration against its resulting zone of inhibition measurement. […]
Serum samples were stored at −70° C. until the bioassay was performed. […] The diameter of the zone of growth inhibition around each well was measured and concentrations of tigecycline were extrapolated from the standard curve.
Peak and trough levels of antibiotic were determined for Groups 2 and 4 at 1 hour (peak) and 12 hour (trough) after the initial antibiotic administration. Antibiotic concentrations were determined by means of a bioassay. […]

[3] = test system: vancomycin resistant E. faecium; conditions: cited from earlier work
[4] = test system: methicillin-resistant Staphylococcus aureus; conditions: 14 mg/kg bid; cited from earlier work

In the case of `CN(C)c1cc(NC(=O)CNC(C)(C)C)c(O)c2c1C[C@H]1C[C@H]3[C@H](N(C)C)C(O)=C(C(N)=O)C(=O)[C@@]3(O)C(O)=C1C2=O` [Tigecycline], the “clinical outcome (MRI)” value (Acinetobacter baumannii) is reported as “resolution of the osteomyelitis”, the half-life ([1]; human, in vivo, intravenous, humans) is reported as 40 to 60 h and the Vd ([1]; human, in vivo, intravenous, humans, read-out: volume of distribution at steady state) is reported as 7 to 14 L/kg. The dose tolerated ([1]; one-hour infusion, human subjects) was “up to 100 mg”, the “dose resulting in gastrointestinal intolerance (nausea and vomiting) in all subjects” value ([1]; twice daily over nine days, 200 ml infusion over one hour, fed) was no less than 75 mg and the dose tolerated ([1]; twice daily, 200 ml infusion over one hour) was 25 to 50 mg. For the same compound, the concentration at 12 h ([2]; New Zealand white, rabbit, serum, subcutaneous, uninfected rabbits, 14 mg/kg twice daily, read-out: serum level at 12 hour (trough)) was greater than 200 ng/mL, the “antibiotic serum levels (peaks and troughs)” value ([2]; infected rabbits, tigecycline 14 mg/kg, vancomycin 30 mg/kg twice daily) was “above minimum inhibitory concentrations” and the MIC [3] was 0.125 µg/mL (≈ 0.213 µM). For the same compound, the “efficacy compared with 40 mg/kg vancomycin” value [4] was “more effective”.
